From patent publication US20240118263A1, “TARGET FOR SCREENING ANTI-TUMOR DRUG, USE THEREOF AND SCREENING METHOD THEREFOR” (SHENYANG FUYANG PHARMACEUTICAL TECHNOLOGY CO., LTD., priority 2019, published 2024)

Assays:
786-O and RCC4 cells = experiment: Annexin V apoptosis analysis, RCC cells; format: cell-based
Method: Cell viability was assessed similarly via CKK8 analysis. […] (FIG. 10C, D).
(§1) Cell apoptosis and cell cycle: Cells (2×10^5) were plated in 6-well plates and treated with different concentrations of ISP I. Then the cells were harvested and washed three times with PBS. Cells were resuspended in 100 μl binding buffer and were incubated with 5 μl APC-conjugated Annexin V working solution, a product of BD bioscience (Franklin Lakes, NJ USA), and 1 μl propidium iodide (PI), a product of Invitrogen, for 15 min at room temperature with protection from light. Data acquisition and quantification were processed with BD LSRFortessa flow cytometer, using FlowJo software (Ashland, OR USA).

786-O xenograft = experiment: 786-O subcutaneous xenograft model; format: in vivo, NSG mice; conditions: 35 mg/kg intraperitoneally daily, vs control
Method: For subcutaneous xenografts, NSG mice (6-8 weeks old) from the NCI-Frederick animal facility and Jackson Lab (Bar Harbor, ME USA) were injected with 5×10^6 to 1×10^7 cells subcutaneously in the flank. One week later, the tumor-bearing mice were randomly assigned to different groups and made the tumor volume baseline equivalent and treated with normal saline or Zenomycin (35 mg/kg) everyday intraperitoneally. Tumors were measured using a caliper, and volume was calculated.

SelH = SelH (Homo sapiens, UniProt Q8IZQ5, U44C); experiment: Surface plasmon resonance (SPR) detection of affinity between compounds and SelH; format: binding
Text: A Cys-deficient Escherichia coli expression system was adopted, which is an effective method to prepare selenoprotein found in recent years. Itsbasic principle is as follows: the characteristic that Cys transfer RNA (tRNACys) can bind to Sec was utilized, and a culture medium which is lack of cysteine (Cys) and rich in Selenium cysteine (Sec) was used for culturing a strain, so that Sec was successfully incorporated into newly expressed protein. According to existing literature reports, a human SelH gene sequence was obtained. Selenocysteine of the SelH is in the middle of the sequence and was terminated here during prokaryotic expression, so that the selenocysteine was mutated from a triple codon TGA of the selenocysteine into TGC, which was synthesized by the Sangon Bioengineering (Shanghai) Co., Ltd. In addition, the adopted SPP system was a single protein production system, and a principle of the SPP system was to induce MazF enzyme (mRNA interfering enzyme for cutting RNA on an ACA nucleotide sequence) to cause growth arrest of thalli. The enzyme can specifically recognize and cut the ACA sequence and prevent synthesis of other background proteins in bacteria. Therefore, when mRNA of the desired target protein was encoded, if the mRNA can be designed into a form lacking an ACA base triplet according to an amino acid encoding rule and was induced at 15° C. by using a pCold vector in cells expressing MazF, the mRNA was not enzymatically hydrolyzed, only a protein derived from the mRNA was generated, and there was little synthesis of other cell proteins.
A pColdI-selH plasmid was transformed into BL21 (DE3) Cys-deficient Escherichia coli, so as to obtain a defective expression bacterium pColdI-selH. Sec was added during culture, making it become selenium-containing protein. The target protein was purified by using Ni^2+ column chelating chromatography, and impure protein was eluted by using an imidazole eluent of different concentrations to finally obtain the target protein. Soluble SelH protein was finally obtained, and SDS-PAGE (sodium dodecyl sulfate polyacrylamide gel electrophoresis) analysis was carried out.
A surface plasmon resonance (SPR) method was adopted to detect the interaction condition of a small molecule and a protein, so that the screening of drugs targeting SelH was carried out.
Purified SelH was diluted into a 50 μg/mL protein solution by using 10 mM sodium acetate with a pH value of 5.5, the purified SelH was fixed onto a CM5 chip by an amino coupling method by using Biacore 8K (GE Healthcard, Sweden), and an RU value was recorded.
An isopentenyl or isovaleryl substituted coumarin compound, or a triterpenoid compound with an isopentenyl-like structure (the compound specifically includes aurapten, protopanaxadiol, iso-imperatorin, decursin, osthol, notoginsenoside R1 and shionon) was dissolved in 100% DMSO to be prepared into solutions containing 5% DMSO of different concentrations (0, 31.25, 62.5, 125, 250 and 500 μM) by using a 1.05×PBS-P^+ buffer solution (GE Healthcare, obtained by diluting 10×PBS-P^+).
A single-cycle kinetics method was adopted, the 1.05×PBS-P^+ buffer solution containing 5% DMSO was used as a Running Buffer, different compounds of different concentrations flowed through the SelH fixed onto the chip, wherein the binding time was 120 s, and the change condition of the RU value was recorded. An equilibrium dissociation constant (KD) was calculated by using software in Biacore 8K so as to evaluate the binding affinity between the protein and the compounds. The SPR detection result of the affinity between compounds and SelH in Embodiment 2 of the present disclosure is as shown in FIG. 1A-G, and the result statistics is as shown in Table 1.
(1) Screening of small molecule drugs by taking SelH as a target A surface plasmon resonance (SPR) method was adopted to detect the interaction condition of a small molecule and a protein, so that the screening of drugs targeting SelH was carried out. […]

[1] = system: human non-small cell lung cancer cells A549; experiment: MTT in-vitro anti-tumor activity test, A549; conditions: MTT
Method: Experimental Materials Human non-small cell lung cancer cells A549, mouse breast cancer cells 4T-1 and mouse melanoma B16-BL6 were purchased from American Type Current Collection (ATCC, Rockville, MD, USA). An RPMI-1640 culture solution containing 10% of fetal calf serum and 2% of glutamine was inoculated with the A549, 4T-1 and B16-BL6 cells, and the cells were incubated at 37° C. in a 5% CO2 incubator.
The compounds were dissolved in DMSO under a sterile condition, and the obtained solutions were diluted to required concentrations by using an RPMI 1640 culture solution, wherein the final concentration of the DMSO was less than 0.5%.
MTT reduction method is used.
A549, 4T-1 and B16-BL6 were used as adherent cells, adherent tumor cells in a logarithmic phase were selected, digested with pancreatin, and then prepared into a cell suspension of 5×10^4/ml with a culture medium containing 10% of calf serum, a 96-well culture plate was inoculated with the cell suspension, wherein each well contained 100 μl of the cell suspension, and incubation was carried out for 24 h at 37° C. and 5% CO2. Replacing was carried out with a new culture solution containing the samples to be detected of different concentrations in the experimental groups, replacing was carried out with a culture solution containing a same volume of solvent in the control group, three parallel wells were set in each group, and incubation was carried out for 48 hours at 37° C. and 5% CO2. The supernate was discarded, careful washing was carried out with PBS twice, 100 μl of a freshly prepared culture medium containing 0.5 mg/ml of MTT was added into each well, and incubation was continued to be carried out at 37° C. for 4 h. The supernatant was carefully discarded, 150 μl of DMSO was added, uniform mixing was carried out for 10 min by using a micro oscillator, and the optical density value was measured at 492 nm by using a microplate reader.
Tumor cell growth inhibition ratio (%)=[A492 (negative control)−A492 (dosing group)]/A492 (negative control)×100%
The median inhibitory concentration (IC50) of the sample is calculated.

LN229 and U251 cells = experiment: Annexin V apoptosis flow cytometry, glioblastoma cells; format: cell-based
Method: as §1

[2] = system: B16 melanoma lung metastasis; experiment: Metastatic murine melanoma (B16) lung metastasis model; format: in vivo, C57BL/6 mice; conditions: ISP I 35 mg/kg intraperitoneally daily, 12 days, vs saline
Method: In addition to the aforementioned xenograft tumor models, the anti-tumor activity of ISP I was assessed in a metastatic murine melanoma (B16) model. Mice were intravenously injected with 2×10^5 B16 cells and randomized into the following three treatment groups: ISP I (35 mg/kg), Carrimycin (56 mg/kg), Saline (control) (FIG. 13D).
For metastasis study, C57BL/6 mice (4-5 weeks) from Charles River Laboratories (Wilmington, MA USA) were assigned randomly to one or another of two groups, 9 animals per group. B16-F10 mouse skin melanoma cells (2×10^5) were resuspended in 100 μl saline and injected through tail vein. After treatment with ISP I at 35 mg/kg for 12 days, all mice were euthanized, and the lungs were examined for counting black metastasis dots.

[3] = Veterinary histopathology review of major organs and clinical chemistry; format: in vivo; conditions: 24 days after treatment

SelH, sequence (Q8IZQ5 with tags, fused parts or gaps U44C): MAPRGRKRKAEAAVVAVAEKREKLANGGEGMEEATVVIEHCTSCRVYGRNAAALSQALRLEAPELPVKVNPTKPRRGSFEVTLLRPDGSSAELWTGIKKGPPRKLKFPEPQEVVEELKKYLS

CO[C@@H]1[C@@H](O[C@@H]2O[C@H](C)[C@@H](O[C@H]3C[C@@](C)(O)[C@@H](OC(=O)CC(C)C)[C@H](C)O3)[C@H](N(C)C)[C@H]2O)[C@@H](CC=O)C[C@@H](C)[C@@H](O[C@H]2CC[C@H](N(C)C)[C@@H](C)O2)/C=C/C=C/C[C@@H](C)OC(=O)C[C@H]1O [Isovalerylspiramycin I, 4″-isovalerylspiramycin I]
apoptosis (Annexin V) (786-O and RCC4 cells): dose-dependent apoptosis
tumor size and weight, 786-O xenograft (786-O xenograft): significantly reduced tumor size and weight
Kd (SelH; SPR Biacore 8K, single-cycle kinetics, Table 3, read-out: KD binding of macrolides and cyclic peptides to SelH): 2480 nM
binding activity to the SelH (in words) (SelH; ranking within the table's compounds): strongest
inhibition effect on A549 cells (in words) [1]: significantly inhibited the human lung cancer A549 cells
apoptosis (Annexin V stain) (LN229 and U251 cells): dose-dependent apoptosis
lung tumor nodules [2]: significantly reduced lung tumor nodules
toxicities in major organs and clinical chemistry [3]: no hematologic, renal, pancreatic or liver toxicities
